{"source": "patent US12458809B2", "about": "“Method and system of using plasma discharge tube for sensitization of cancer cells” (The George Washington University, priority 2019, dated 2025)", "key": {"[1]": {"test_system": "U87 glioblastoma cells", "assay": "MTT cell viability assay, U87 glioblastoma cells, TMZ with or without plasma discharge tube electro-magnetic field", "type": "cell-based, human", "conditions": "for inhibition of the growth of U87 cells: then 180 μM TMZ", "method": "(§1) In one experiment conducted using the test system 10 in FIGS. 1A-1B, human glioblastoma cancer cell lines U87 and A172 as well as […] E6/E7 were provided from the ATCC (City of Manassas, VA), and were grown in Dulbecco's Modified Eagle Medium (Gibco) supplemented with 10% fetal bovine serum (Atlanta Biologicals) and 1% penicillin-streptomycin solution (Invitrogen) under standard cell culture conditions (humidified atmosphere with 5% CO2 at 37° C.). After one passage, 10,000 cells in 100 μL medium were seeded into 96-well plates such as the plate 134 in FIG. 1A. The cells were cultured for 24 hours before the experiment was performed to ensure proper cell attachment and stability.\n(§2) Cell viability was analyzed by using an MTT assay available from Sigma-Aldrich, which is a colorimetric assay for analyzing the cell metabolic activity. The MTT protocol is based on NAD(P)H-dependent cellular oxidoreductases, which reduces the water-soluble MTT ((3-(4,5-dimethylthiazol-2-yl)-2,5-diphenyltetrazolium bromide) to an insoluble formazan product. Cells with active metabolism can transform MTT into formazan; however, dead cells cannot transform MTT into formazan and will not show detectable signal. The measured absorbance at OD 590 nm is proportional to the number of viable cells.\n(§3) Following treatment with an electro-magnetic field generated from the example plasma tube, the cells were cultured for 72 hours. A total of 100 μL MTT solution (7 mg Thiazolyl Blue Tetrazolium Blue in 10 ml DMEM) was added to each well. Cells were cultured for an additional 3 hours at 37° C., and then the MTT solution was aspirated and a 100 μL solvent was added to dissolve the formazan crystals. The result was recorded with a Synergy H1 Hybrid Multi-Mode Microplate Reader at 570 nm. For each condition (treatment time, voltage, drug concentration), the experiments were performed in triplicates and were repeated independently 3 times.\nIn this example, four different experimental cell groups were used. The first experimental group was the control group. For each well of the plates for the control group, the cell culture media was removed before the treatment applied to the other experimental groups. After the treatment was applied to the other experimental groups, 100 μL, fresh cell culture media for each well was added to the cells of the control group.\nThe second experimental group is the tube-only group. For the tube-only group, the cell culture media was removed before the treatment as well. After that, the cells were treated by placing the plate 134 on the side of the discharge tube 100 in FIG. 1A, with a distance of 1 and 5 mm between the plate 134 and the tube 100. The cells in the plate were exposed to the electro-magnetic field for 1, 4 and 7 minutes. 100 μL fresh cell culture media for each well was added to the cells after the treatment.\nThe third experiment group is the drug-only group. For the drug-only group, the cell culture media was removed before the treatment via electro-magnetic field applied to the other experimental groups. After the treatment of the other groups, 100 μL fresh cell culture media with 180, 250, 320 μM of TMZ for each well was added to the cells.\nThe last experimental group is a combination group. For the combination group, the cell culture media was removed before the treatment as well. Then, the cells were treated by placing the plate 134 on the side of the discharge tube 100 at a distance of 1 and 5 mm. The electro-magnetic field was applied for 1, 4 and 7 minutes. Following the treatment, 100 μL, fresh cell culture media with 180, 250, and 320 μM of TMZ for each well was added to the cells."}, "[2]": {"test_system": "A172 glioblastoma cells", "assay": "MTT cell viability assay, A172 glioblastoma cells, TMZ with or without plasma discharge tube electro-magnetic field", "type": "cell-based, human", "method": "as §1, §2, §3\nIn this example, four different experimental cell groups were used. The first experimental group was the control group. […]"}, "[3]": {"test_system": "hTERT/E6/E7 cells", "assay": "MTT cell viability assay, non-cancerous hTERT/E6/E7 cells, TMZ with or without plasma discharge tube electro-magnetic field", "type": "cell-based", "conditions": "after a single 7-minute treatment with discharge tube, E6/E7 non-tumor cell line", "method": "as §1\nas §2, with “cells. […]” for “cells.”"}}, "data": [{"compound": "Cn1nnc2c(C(N)=O)ncn2c1=O", "note": "[TMZ, Temozolomide]", "values": [{"measurement": "inhibition of the growth of U87 cells (killing effect)", "setting": "[1]; 1, 4 or 7 minute electro-magnetic field exposure at 1 mm, then 320 μM TMZ", "result": "~80", "unit": "%"}, {"measurement": "inhibition of the growth of U87 cells", "setting": "[1]; 1 minute electro-magnetic field exposure", "result": 24, "unit": "%"}, {"measurement": "inhibition of the growth of U87 cells", "setting": "[1]; 4 minute electro-magnetic field exposure", "result": 38, "unit": "%"}, {"measurement": "inhibition of the growth of U87 cells", "setting": "[1]; 7 minute electro-magnetic field exposure", "result": 72, "unit": "%"}, {"measurement": "increase in U87 cell death compared with non-cancerous cells", "setting": "[1]; 7 minutes electro-magnetic field exposure prior to TMZ treatment (FIG. 7)", "result": 43, "unit": "%"}, {"measurement": "inhibition at 180 µM", "setting": "[1]; Homo sapiens, U-87 MG, 72 h, 180 μM TMZ only, no electro-magnetic field, 72 h, read-out: growth inhibition / cell death of U87 cells", "result": 21, "unit": "%"}, {"measurement": "higher cell death in U87 cells compared to E6/E7 cells", "setting": "[1]; TMZ-only treatment (FIG. 7)", "result": 12, "unit": "%"}, {"measurement": "increase of anti-cancer efficacy of TMZ (factor)", "setting": "[1]; after a single 7-minute treatment with discharge tube, U87", "result": "> 2"}, {"measurement": "killing effect on U87 cells", "setting": "[1]; electro-magnetic field exposure at 5 mm (so in the source); FIG. 4E) plus TMZ", "result": 60, "unit": "%"}, {"measurement": "reduction of cell viability of A172 cells", "setting": "[2]; 7 minutes electro-magnetic field exposure at 1 mm, then 250 μM TMZ", "result": 76, "unit": "%"}, {"measurement": "inhibition at 250 µM", "setting": "[2]; Homo sapiens, A 172, 250 μM TMZ, read-out: cell growth inhibition of A172 cells", "result": 23, "unit": "%"}, {"measurement": "increase of anti-cancer efficacy of TMZ (factor)", "setting": "[2]; after a single 7-minute treatment with discharge tube, A172", "result": "> 2"}, {"measurement": "increase of anti-cancer efficacy of TMZ", "setting": "[3]", "result": "no significant effect"}]}]}
